Results published in patent publication US9981964B2 (Agency for Science, Technology and Research, priority 2013, dated 2018).

The molecules below were run on HEK293-STF3A cells (assay: STF3A assay (STF luciferase reporter in Wnt3A-expressing HEK293 cells)). Conditions: Homo sapiens, 24 h, 1 day of treatment.
Format: cell-based
Summary of the method: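 HEK293 cells carrying the STF reporter and expressing Wnt3A, seeded 2×10^4 per well overnight, then treated 1 day with compound at final 50 μM to 1.5 nM. Luciferase activity read by luminescence after Steady-Glo reagent, 10 min at room temperature.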

Compared with CC(C)N1C(=O)C2=C(C1=O)N(CC(=O)Nc1ccc(-c3ccccc3)nn1)CCC2 [Compound 33, 2-(6-isopropyl-5,7-dioxo-2,3,4,5,6,7-hexahydro-1H-pyrrolo[3,4-b]pyridin-1-yl)-N-(6-phenylpyridazin-3-yl)acetamide], C[C@H](C(=O)Nc1ccc(-c2ccccc2)nn1)N1CCCC2=C1C(=O)N(C)C2=O (single isomer, unassigned) [Compound 95] is higher in IC50: under 0.1 µM for the first, over 10 µM for the second. The first is the more potent here.

Cc1ccc(-c2ccc(NC(=O)CN3CCCC4=C3C(=O)N(C)C4=O)nc2)cn1 [Compound 39, 2-(6-methyl-5,7-dioxo-2,3,4,5,6,7-hexahydro-1H-pyrrolo[3,4-b]pyridin-1-yl)-N-(6′-methyl-[3,3′-bipyridin]-6-yl)acetamide] and Cc1ccc(-c2ccc(NC(=O)CN3CCCC4=C3C(=O)N(C3CC3)C4=O)nc2)cn1 [Compound 85, 2-(6-cyclopropyl-5,7-dioxo-2,3,4,5,6,7-hexahydro-1H-pyrrolo[3,4-b]pyridin-1-yl)-N-(6′-methyl-[3,3′-bipyridin]-6-yl)acetamide] cannot be ordered by IC50: under 0.1 µM for the first, under 0.1 µM for the second.

O=C(CN1CCCC2=C1C(=O)N(C1CC1)C2=O)Nc1ccc(-c2ccccc2)cc1 [Compound 67, N-([1,1′-biphenyl]-4-yl)-2-(6-cyclopropyl-5,7-dioxo-2,3,4,5,6,7-hexahydro-1H-pyrrolo[3,4-b]pyridin-1-yl)acetamide] and CN1C(=O)C2=C(C1=O)N(CC(=O)Nc1ccc(-c3ccncc3)cc1)CCC2 [Compound 79, 2-(6-methyl-5,7-dioxo-2,3,4,5,6,7-hexahydro-1H-pyrrolo[3,4-b]pyridin-1-yl)-N-(4-(pyridin-4-yl)phenyl)acetamide] cannot be ordered by IC50: under 0.1 µM for the first, under 0.1 µM for the second.

Compared with CN1C(=O)C2=C(C1=O)N(CC(=O)Nc1ccc(-c3ccccc3)cc1F)CCC2 [Compound 83, N-(3-fluorobiphenyl-4-yl)-2-(6-methyl-5,7-dioxo-2,3,4,5,6,7-hexahydro-1H-pyrrolo[3,4-b]pyridin-1-yl)acetamide], Cc1cc(-c2ccccc2)ccc1NC(=O)CN1CCCC2=C1C(=O)N(C)C2=O [Compound 78, 2-(6-methyl-5,7-dioxo-2,3,4,5,6,7-hexahydro-1H-pyrrolo[3,4-b]pyridin-1-yl)-N-(3-methyl-[1,1′-biphenyl]-4-yl)acetamide] is higher in IC50: under 0.1 µM for the first, over 10 µM for the second. The first is the more potent here.

O=C(CN1CCCC2=C1C(=O)N(C1CC1)C2=O)Nc1ccc(-c2ccc(F)nc2)nn1 [Compound 69, 2-(6-cyclopropyl-5,7-dioxo-2,3,4,5,6,7-hexahydro-1H-pyrrolo[3,4-b]pyridin-1-yl)-N-(6-(6-fluoropyridin-3-yl)pyridazin-3-yl)acetamide] and CN1C(=O)C2=C(C1=O)N(CC(=O)Nc1ccc(-c3ccc(F)nc3)nn1)CCC2 [Compound 46, N-(6-(6-fluoropyridin-3-yl)pyridazin-3-yl)-2-(6-methyl-5,7-dioxo-2,3,4,5,6,7-hexahydro-1H-pyrrolo[3,4-b]pyridin-1-yl)acetamide] cannot be ordered by IC50: under 0.1 µM for the first, under 0.1 µM for the second.

First: COc1ccccc1-c1ccc(NC(=O)CN2CCCC3=C2C(=O)N(C)C3=O)nn1 [Compound 28, N-(6-(2-methoxyphenyl)pyridazin-3-yl)-2-(6-methyl-5,7-dioxo-2,3,4,5,6,7-hexahydro-1H-pyrrolo[3,4-b]pyridin-1-yl)acetamide]
Second: Cc1ccccc1-c1ccc(NC(=O)CN2CCCC3=C2C(=O)N(C)C3=O)nn1 [Compound 27, 2-(6-methyl-5,7-dioxo-2,3,4,5,6,7-hexahydro-1H-pyrrolo[3,4-b]pyridin-1-yl)-N-(6-(o-tolyl)pyridazin-3-yl)acetamide]
The IC50 of the first is higher: over 10 µM for the first, under 1 µM for the second.

CN1C(=O)C2=C(C1=O)N(CC(=O)Nc1ccc(-c3cncnc3)cn1)CCC2 [Compound 101, 2-(6-methyl-5,7-dioxo-2,3,4,5,6,7-hexahydro-1H-pyrrolo[3,4-b]pyridin-1-yl)-N-(5-(pyrimidin-5-yl)pyridin-2-yl)acetamide] and CN1C(=O)C2=C(C1=O)N(CC(=O)Nc1ccc(-c3cncc(F)c3)cn1)CCC2 [Compound 143, N-(5′-fluoro-3,3′-bipyridin-6-yl)-2-(6-methyl-5,7-dioxo-2,3,4,5,6,7-hexahydro-1H-pyrrolo[3,4-b]pyridin-1-yl)acetamide] cannot be ordered by IC50: under 0.1 µM for the first, under 0.1 µM for the second.

COc1cncc(-c2ccc(NC(=O)CN3CCCC4=C3C(=O)N(C3CC3)C4=O)cn2)c1 [Compound 144, 2-(6-cyclopropyl-5,7-dioxo-2,3,4,5,6,7-hexahydro-1H-pyrrolo[3,4-b]pyridin-1-yl)-N-(5′-methoxy-2,3′-bipyridin-5-yl)acetamide] and COc1cncc(-c2ccc(NC(=O)CN3CCCC4=C3C(=O)N(C3CC3)C4=O)nc2)c1 [Compound 147, 2-(6-cyclopropyl-5,7-dioxo-2,3,4,5,6,7-hexahydro-1H-pyrrolo[3,4-b]pyridin-1-yl)-N-(5′-methoxy-3,3′-bipyridin-6-yl)acetamide] cannot be ordered by IC50: under 0.1 µM for the first, under 0.1 µM for the second.

C[C@H](C(=O)Nc1ccc(-c2cccnc2)cn1)N1CCCC2=C1C(=O)N(C)C2=O (single isomer, unassigned) [Compound 93] and C[C@@H](C(=O)Nc1ccc(-c2cccnc2)cn1)N1CCCC2=C1C(=O)N(C)C2=O (single isomer, unassigned) [Compound 92] cannot be ordered by IC50: under 1 µM for the first, under 0.1 µM for the second.

Cc1ncccc1-c1ccc(NC(=O)CN2CCCC3=C2C(=O)N(C2CC2)C3=O)nc1 [Compound 110, 2-(6-cyclopropyl-5,7-dioxo-2,3,4,5,6,7-hexahydro-1H-pyrrolo[3,4-b]pyridin-1-yl)-N-(2′-methyl-[3,3′-bipyridin]-6-yl)acetamide] and Cc1ncccc1-c1ccc(NC(=O)CN2CCCC3=C2C(=O)N(C2CC2)C3=O)cn1 [Compound 121, 2-(6-cyclopropyl-5,7-dioxo-2,3,4,5,6,7-hexahydro-1H-pyrrolo[3,4-b]pyridin-1-yl)-N-(2′-methyl-2,3′-bipyridin-5-yl)acetamide] cannot be ordered by IC50: under 1 µM for the first, under 0.1 µM for the second.

CC(C(=O)Nc1cc(F)c(-c2cccnc2)cn1)N1CCCC2=C1C(=O)N(C)C2=O (stereo not shown) [Compound 119, N-(4-fluoro-3,3′-bipyridin-6-yl)-2-(6-methyl-5,7-dioxo-2,3,4,5,6,7-hexahydro-1H-pyrrolo[3,4-b]pyridin-1-yl)propanamide] and CC(C(=O)Nc1ccc(-c2cccnc2F)cn1)N1CCCC2=C1C(=O)N(C)C2=O (stereo not shown) [Compound 97, N-(2′-fluoro-3,3′-bipyridin-6-yl)-2-(6-methyl-5,7-dioxo-2,3,4,5,6,7-hexahydro-1H-pyrrolo[3,4-b]pyridin-1-yl)propanamide] cannot be ordered by IC50: under 0.1 µM for the first, under 0.1 µM for the second.

O=C(CN1CCCC2=C1C(=O)N(C1CC1)C2=O)Nc1ccc(-c2ccc(OC(F)(F)F)cc2)nn1 [Compound 57, 2-(6-cyclopropyl-5,7-dioxo-2,3,4,5,6,7-hexahydro-1H-pyrrolo[3,4-b]pyridin-1-yl)-N-(6-(4-(trifluoromethoxy)phenyl)pyridazin-3-yl)acetamide] and CN1C(=O)C2=C(C1=O)N(CC(=O)Nc1ccc(-c3ccc(C(F)(F)F)nc3)nn1)CCC2 [Compound 45, 2-(6-methyl-5,7-dioxo-2,3,4,5,6,7-hexahydro-1H-pyrrolo[3,4-b]pyridin-1-yl)-N-(6-(6-(trifluoromethyl)pyridin-3-yl)pyridazin-3-yl)acetamide] cannot be ordered by IC50: under 1 µM for the first, under 5 µM for the second.

CN1C(=O)C2=C(C1=O)N(CC(=O)Nc1ccc(-c3cccc(F)c3)nc1)CCC2 [Compound 154, N-(6-(3-fluorophenyl)pyridin-3-yl)-2-(6-methyl-5,7-dioxo-2,3,4,5,6,7-hexahydro-1H-pyrrolo[3,4-b]pyridin-1-yl)acetamide] and Cc1cccc(-c2ccc(NC(=O)CN3CCCC4=C3C(=O)N(C)C4=O)cn2)c1 [Compound 131, 2-(6-methyl-5,7-dioxo-2,3,4,5,6,7-hexahydro-1H-pyrrolo[3,4-b]pyridin-1-yl)-N-(6-(m-tolyl)pyridin-3-yl)acetamide] cannot be ordered by IC50: under 0.1 µM for the first, under 0.1 µM for the second.

COc1cccc(-c2ccc(NC(=O)CN3CCCC4=C3C(=O)N(C)C4=O)nn2)c1 [Compound 32, N-(6-(3-methoxyphenyl)pyridazin-3-yl)-2-(6-methyl-5,7-dioxo-2,3,4,5,6,7-hexahydro-1H-pyrrolo[3,4-b]pyridin-1-yl)acetamide] and CN1C(=O)C2=C(C1=O)N(CC(=O)Nc1ccc(-c3cccnc3)cn1)CCC2 [Compound 8, N-([3,3′-bipyridin]-6-yl)-2-(6-methyl-5,7-dioxo-2,3,4,5,6,7-hexahydro-1H-pyrrolo[3,4-b]pyridin-1-yl)acetamide] cannot be ordered by IC50: under 0.1 µM for the first, under 0.1 µM for the second.

Cc1cnc(-c2ccc(NC(=O)CN3CCCC4=C3C(=O)N(C3CC3)C4=O)nc2)cn1 [Compound 157, 2-(6-cyclopropyl-5,7-dioxo-2,3,4,5,6,7-hexahydro-1H-pyrrolo[3,4-b]pyridin-1-yl)-N-(5-(5-methylpyrazin-2-yl)pyridin-2-yl)acetamide] and Cc1cnc(-c2ccc(NC(=O)CN3CCCC4=C3C(=O)N(C)C4=O)nc2)cn1 [Compound 132, 2-(6-methyl-5,7-dioxo-2,3,4,5,6,7-hexahydro-1H-pyrrolo[3,4-b]pyridin-1-yl)-N-(5-(5-methylpyrazin-2-yl)pyridin-2-yl)acetamide] cannot be ordered by IC50: under 0.1 µM for the first, under 0.1 µM for the second.

Cc1cncc(-c2ccc(NC(=O)CN3CCCC4=C3C(=O)N(C)C4=O)nc2)c1 [Compound 148, 2-(6-methyl-5,7-dioxo-2,3,4,5,6,7-hexahydro-1H-pyrrolo[3,4-b]pyridin-1-yl)-N-(5′-methyl-[3,3′-bipyridin]-6-yl)acetamide] and Cc1cc(NC(=O)CN2CCCC3=C2C(=O)N(C2CC2)C3=O)ncc1-c1cccnc1 [Compound 120, 2-(6-cyclopropyl-5,7-dioxo-2,3,4,5,6,7-hexahydro-1H-pyrrolo[3,4-b]pyridin-1-yl)-N-(4-methyl-[3,3′-bipyridin]-6-yl)acetamide] cannot be ordered by IC50: under 0.1 µM for the first, under 1 µM for the second.

CN1C(=O)C2=C(C1=O)N(CC(=O)Nc1ccc(-c3ncccn3)cc1)CCC2 [Compound 74, 2-(6-methyl-5,7-dioxo-2,3,4,5,6,7-hexahydro-1H-pyrrolo[3,4-b]pyridin-1-yl)-N-(4-(pyrimidin-2-yl)phenyl)acetamide] and CC(C(=O)Nc1ccc(-c2cccnc2)nn1)N1CCCC2=C1C(=O)N(C)C2=O (stereo not shown) [Compound 60, 2-(6-methyl-5,7-dioxo-2,3,4,5,6,7-hexahydro-1H-pyrrolo[3,4-b]pyridin-1-yl)-N-(6-(pyridin-3-yl)pyridazin-3-yl)propanamide] cannot be ordered by IC50: under 1 µM for the first, under 0.1 µM for the second.
